Experimental data published in US9498548B2, “Method of using oxidative reductive potential water solution in dental applications” (priority 2005, dated 2016).
Where two headings read alike, the source gives them in different places.

Experiments:
[1] = Root canal treatment study (irrigation and oral rinses); type: in vivo, patients; conditions: ORP water solution 109 pts; 2.5% SH 129 pts
Excerpt: Acute root canal was defined as an X-ray image showing a periapical lesion in addition to negative vitality and positive percussion clinical tests. Retrospective analysis of paired-cases presenting similar root canal infections between 2002 and 2003 at the same Institution was undertaken for the control group (the “SH” group) (see FIGS. 7A-B).
During the process the ducts were isolated to avoid contamination. The cavity was opened and the root drilled. ORP water solution flush started with the drilling process instead of using water or saline solution. Instrumentation was conducted according to the crown down technique using rotatory NiTi instruments. Instrumentation was done according to the extension of the duct as measured by the X ray. Duct irrigation was conducted with the ORP water solution after using each instrument. […] The duct was dried out with dental paper and occlusion done by lateral condensation with calcium hydroxide and epoxy resin. […] After 30 days, oral rinse once daily indefinitely was recommended.
A standard art-known treatment procedure with sodium hypochlorite (SH) was conducted for root canal treatment in control patients. Particular care was paid to avoid infiltration of the solution to the periapical region during the manipulation. All patients in the control group received ampicilin (500 mg tid) or cephalexin (500 mg bid) for 7 days as well as anti-inflammatory drugs (naproxen 500 mg bid) as necessary.
The demographic characteristics were similar for both groups (FIGS. 7 A & B).

[2] = tested on: human diploid fibroblasts (HDFs); assay: Cell viability, apoptosis and necrosis by flow cytometry; type: cell-based; conditions: 880 mM
Description: HP is known to be toxic to eukaryotic cells, increasing apoptosis and necrosis and reducing cellular viability. […] HDF cultures were obtained from three different foreskins, which were pooled and cryopreserved together for the purpose of this study. Only diploid cells were used for all experiments. […] Simultaneous analyses of these parameters were performed in the same cell populations by flow cytometry using: […] FIG. 4B) Annexin V-FITC and FIG. 4C) Propidium iodide. FIGS. 8A-8C disclose percentage values expressed as mean±SD (n=3).

HDFs = conditions: human, 1 month, 5 µM
[3] = tested on: murine polychromatic erythrocytes; conditions: for PCE/NCE ratio: bone marrow, cyclophosphamide 8 mg/mL, 12.5 ml/kg i.p. day 2
Description: The mammalian in vivo micronucleus test is used for the identification of substances which cause damage to chromosomes or the mitotic apparatus of murine polychromatic erythrocytes. This damage results in the formation of “micronuclei,” intracellular structures containing lagging chromosome fragments or isolated whole chromosomes. […] The positive control mice received a single intraperitoneal injection of cyclophosphamide (8 mg/mL, 12.5 ml/kg) on day 2. All mice were observed immediately after injection for any adverse reactions. […] On day 3, all mice were weighed and terminated.
The femurs were excised from the terminated mice, the bone marrow was extracted, and duplicate smear preparations were performed for each mouse. The bone marrow slides for each animal were read at 40× magnification. The ratio of polychromatic erythrocytes (PCE) to normochromatic erythrocytes (NCE), an index of bone marrow toxicity, was determined for each mouse by counting a total of at least 200 erythrocytes. Then a minimum of 2000 scoreable PCE per mouse were evaluated for the incidence of micronucleated polychromatic erythrocytes. Statistical analysis of the data were done using the Mann and Whitney test (at 5% risk threshold) from a statistical software package (Statview 5.0, SAS Institute Inc., USA).

With `[Na+].[O-]Cl` [2.5% SH, sodium hypochlorite] as the compound, how does the dental losses [1] read?
The dental losses was “Dental losses only occurred in the SH control group”.

What about the “patients with an acute local reaction after root canal treatment” value [1] of the same compound?
Its value is 16 patients.

What about the “total number of affected teeth” value [1] of the same compound?
Its value is 23.

Which Cell viability ([2]; 5 min) does the source give for `OO` [HP, hydrogen peroxide] here?
The Cell viability was 55%.

What about the Cell viability ([2]; 30 min) of the same compound?
The Cell viability was 5%.

And the “cells with increased SA-β-Gal expression” value (HDFs)?
Its value is 86%.

Which results are given for `O=P1(N(CCCl)CCCl)NCCCO1` (stereo not drawn) [cyclophosphamide]?
PCE/NCE ratio ([3]; females): 0.73; PCE/NCE ratio ([3]; males): 0.77; number of polychromatic erythrocytes bearing micronuclei ([3]; males, minimum of 2000 PCE per mouse evaluated): 11.0
